# Data published in US8063071B2 (GlaxoSmithKline, LLC, priority 2007, dated 2011).
# Counter-ions that a name gives are not always drawn.
# How the values were obtained:
# [1] = tested on: human monocyte stimulated cytokine production (TNF-α); assay: Monocyte assay (LPS-stimulated TNF-α production); assay type: cell-based; settings: for inhibition at 0.3 µM: read-out: inhibition at 300 nM in the monocyte assay; for IC50: 24 h, 200 ng/mL LPS, TNF-α by ELISA
# Method in brief: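 TNF-α release was measured by ELISA after 24 hrs at 37 C. Cells were stimulated with 200 ng/mL E. coli LPS, with compound added 30 minutes beforehand (0.1% DMSO vehicle). Cells were Ficoll/MACS-isolated CD14+ human monocytes adhered at 1×10^6 cells/mL, and viability was checked by trypan blue.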
# [2] = target: T1, Recombinant human IKKβ (residues 1-737) (Homo sapiens, UniProt O14920); assay: IKK2 assay (TR-FRET); assay type: biochemical; settings: ATP 1 μM final, read-out: pIC50 against IKK2 (converted)
# T1 construct: Recombinant human IKKβ (residues 1-737); GST (C); made in house
# T1 sequence (O14920 1-737): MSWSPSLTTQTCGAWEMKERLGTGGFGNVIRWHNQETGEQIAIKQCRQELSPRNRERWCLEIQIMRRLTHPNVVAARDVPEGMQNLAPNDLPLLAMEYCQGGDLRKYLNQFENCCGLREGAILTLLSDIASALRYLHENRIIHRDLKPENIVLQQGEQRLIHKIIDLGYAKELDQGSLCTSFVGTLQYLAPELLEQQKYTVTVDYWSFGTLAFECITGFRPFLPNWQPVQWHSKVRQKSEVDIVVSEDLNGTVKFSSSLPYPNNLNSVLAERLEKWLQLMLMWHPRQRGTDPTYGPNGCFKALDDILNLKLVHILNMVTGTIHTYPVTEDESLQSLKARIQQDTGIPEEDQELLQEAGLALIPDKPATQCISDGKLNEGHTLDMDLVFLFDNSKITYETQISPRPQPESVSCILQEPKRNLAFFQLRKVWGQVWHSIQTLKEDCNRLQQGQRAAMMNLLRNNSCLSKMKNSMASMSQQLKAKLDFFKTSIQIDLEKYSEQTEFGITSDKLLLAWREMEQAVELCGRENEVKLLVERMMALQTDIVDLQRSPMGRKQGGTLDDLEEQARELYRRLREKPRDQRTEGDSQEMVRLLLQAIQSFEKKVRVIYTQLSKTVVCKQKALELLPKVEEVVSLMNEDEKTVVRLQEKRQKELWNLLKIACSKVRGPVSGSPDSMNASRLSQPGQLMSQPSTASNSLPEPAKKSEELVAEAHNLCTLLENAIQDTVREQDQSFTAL
# Method in brief: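 TR-FRET readout (665 nm over 620 nm Eu reference) of GST-IB Ser32/36 phosphorylation after 60 min detection. Reaction: 1 μM ATP, 25 nM substrate, 0.5-5 nM GST-fused IKKβ 1-737 from baculovirus, pH 7.4 HEPES buffer, 1.7% DMSO, 15 min room temperature, EDTA-terminated.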
Structure (SMILES),IC50 [2],IC50 [1],inhibition at 0.3 µM [1]
"CCS(=O)(=O)N1CCC(c2c[nH]c3c(C(N)=O)cc(-c4nc(CN5CCCC5)cs4)cc23)CC1 [Example 251, 3-[1-(ethylsulfonyl)-4-piperidinyl]-5-[4-(1-pyrrolidinylmethyl)-1,3-thiazol-2-yl]-1H-indole-7-carboxamide trifluoroacetate]",≤ 10 µM,≤ 1.5 µM,–
"CCS(=O)(=O)N1CCC(c2c[nH]c3c(C(N)=O)cc(-c4cccc(C5CSCCN5)c4)cc23)CC1 (stereo not drawn) [Example 297, 3-[1-(ethylsulfonyl)-4-piperidinyl]-5-[3-(3-thiomorpholinyl)phenyl]-1H-indole-7-carboxamide trifluoroacetate]",≤ 10 µM,≤ 1.5 µM,–
"CCN1CCN(c2ccc(-c3cc(C(N)=O)c4[nH]cc(C5CCN(S(=O)(=O)CC)CC5)c4c3)cn2)CC1 [Example 136, 5-[6-(4-ethyl-1-piperazinyl)-3-pyridinyl]-3-[1-(ethylsulfonyl)-4-piperidinyl]-1H-indole-7-carboxamide trifluoroacetate]",≤ 10 µM,> 1 µM,–
"CCS(=O)(=O)N1CCC(c2c[nH]c3c(C(N)=O)cc(-c4cccc(CNS(=O)(=O)C5CC5)c4)cc23)CC1 [Example 369, 5-(3-{[(cyclopropylsulfonyl)amino]methyl}phenyl)-3-[1-(ethylsulfonyl)-4-piperidinyl]-1H-indole-7-carboxamide]",≤ 10 µM,≤ 1.5 µM,–
"CC(C)S(=O)(=O)N1CCC(c2c[nH]c3c(C(N)=O)cc(-c4csc(CN(C)C5CCCC5)c4)cc23)CC1 [Example 396, 5-(5-{[cyclopentyl(methyl)amino]methyl}-3-thienyl)-3-{1-[(1-methylethyl)sulfonyl]-4-piperidinyl}-1H-indole-7-carboxamide]",≤ 10 µM,≤ 1.5 µM,–
"CCS(=O)(=O)N1CCC(c2c[nH]c3c(C(N)=O)cc(-c4csc(CN5CCOCC5)n4)cc23)CC1 [Example 351, 3-[1-(ethylsulfonyl)-4-piperidinyl]-5-[2-(4-morpholinylmethyl)-1,3-thiazol-4-yl]-1H-indole-7-carboxamide trifluoroacetate]",≤ 10 µM,–,0 to 60%
"CCS(=O)(=O)N1CCC(c2c[nH]c3c(C(N)=O)cc(-c4cccc(CN5CCNCC5)c4)cc23)CC1 [Example 2, 3-[1-(ethylsulfonyl)-4-piperidinyl]-5-[3-(1-piperazinylmethyl)phenyl]-1H-indole-7-carboxamide]",≤ 10 µM,≤ 1.5 µM,–
"CCS(=O)(=O)N1CCC(c2c[nH]c3c(C(N)=O)cc(-c4cccc(CN5CCCCC5)c4)cc23)CC1 [Example 1, 3-[1-(ethylsulfonyl)-4-piperidinyl]-5-[3-(1-piperidinylmethyl)phenyl]-1H-indole-7-carboxamide]",≤ 10 µM,≤ 1.5 µM,–
"CCS(=O)(=O)N1CCC(c2c[nH]c3c(C(N)=O)cc(-c4ccc(CNCC5CC5)s4)cc23)CC1 [Example 172, 5-(5-{[(cyclopropylmethyl)amino]methyl}-2-thienyl)-3-[1-(ethylsulfonyl)-4-piperidinyl]-1H-indole-7-carboxamide]",≤ 10 µM,≤ 1.5 µM,–
"CCS(=O)(=O)N1CCC(c2c[nH]c3c(C(N)=O)cc(-c4cccc(CNS(=O)(=O)c5cccc6nonc56)c4)cc23)CC1 [Example 385, 5-(3-{[(2,1,3-benzoxadiazol-4-ylsulfonyl)amino]methyl}phenyl)-3-[1-(ethylsulfonyl)-4-piperidinyl]-1H-indole-7-carboxamide]",≤ 10 µM,> 1 µM,–
"CCS(=O)(=O)N1CCC(c2c[nH]c3c(C(N)=O)cc(-c4cc(F)cc(CN[C@@H](C)C(C)(C)C)c4)cc23)CC1 [Example 317, 3-[1-(ethylsulfonyl)-4-piperidinyl]-5-[3-fluoro-5-({[(1S)-1,2,2-trimethylpropyl]amino}methyl)phenyl]-1H-indole-7-carboxamide trifluoroacetate]",≤ 10 µM,≤ 1.5 µM,–
"CCN(CC)CCNCCn1cc(-c2cc(C(N)=O)c3[nH]cc(C4CCN(S(=O)(=O)CC)CC4)c3c2)cn1 [Example 258, 5-[1-(2-{[2-(diethylamino)ethyl]amino}ethyl)-1H-pyrazol-4-yl]-3-[1-(ethylsulfonyl)-4-piperidinyl]-1H-indole-7-carboxamide trifluoroacetate]",≤ 10 µM,> 1 µM,–
"CCS(=O)(=O)N1CCC(c2c[nH]c3c(C(N)=O)cc(-c4ccc(CCNC(=O)C5CCC5)cc4)cc23)CC1 [Example 132, 5-(4-{2-[(cyclobutylcarbonyl)amino]ethyl}phenyl)-3-[1-(ethylsulfonyl)-4-piperidinyl]-1H-indole-7-carboxamide]",≤ 10 µM,> 1 µM,–
"CCS(=O)(=O)N1CCC(c2c[nH]c3c(C(N)=O)cc(-c4ccc5c(c4)C(NCC(C)C)CC5)cc23)CC1 (stereo not drawn) [Example 33, 3-[1-(ethylsulfonyl)-4-piperidinyl]-5-{3-[(2-methylpropyl)amino]-2,3-dihydro-1H-inden-5-yl}-1H-indole-7-carboxamide trifluoroacetate]",≤ 10 µM,≤ 1.5 µM,–

# The next lines start with results.
IC50 [2],IC50 [1],Structure (SMILES),inhibition at 0.3 µM [1]
≤ 10 µM,–,"CCS(=O)(=O)N1CCC(c2c[nH]c3c(C(N)=O)cc(-c4csc(CN(C)Cc5ccccc5)c4)cc23)CC1 [Example 74, 3-[1-(ethylsulfonyl)-4-piperidinyl]-5-(5-{[methyl(phenylmethyl)amino]methyl}-3-thienyl)-1H-indole-7-carboxamide trifluoroacetate]",0 to 60%
≤ 10 µM,≤ 1.5 µM,"CCS(=O)(=O)N1CCC(c2c[nH]c3c(C(N)=O)cc(-c4ccc(CNC)cc4)cc23)CC1 [Example 139, 3-[1-(ethylsulfonyl)-4-piperidinyl]-5-{4-[(methylamino)methyl]phenyl}-1H-indole-7-carboxamide trifluoroacetate]",–
≤ 10 µM,–,"CCS(=O)(=O)N1CCC(c2c[nH]c3c(C(N)=O)cc(-c4csc(CN(C)Cc5cccnc5)c4)cc23)CC1 [Example 84, 3-[1-(ethylsulfonyl)-4-piperidinyl]-5-(5-{[methyl(3-pyridinylmethyl)amino]methyl}-3-thienyl)-1H-indole-7-carboxamide trifluoroacetate]",0 to 60%
≤ 10 µM,≤ 1.5 µM,"CCS(=O)(=O)N1CCC(c2c[nH]c3c(C(N)=O)cc(-c4cccc(CN(CCOC)CCOC)c4)cc23)CC1 [Example 8, 5-[3-({bis[2-(methyloxy)ethyl]amino}methyl)phenyl]-3-[1-(ethylsulfonyl)-4-piperidinyl]-1H-indole-7-carboxamide]",–
≤ 10 µM,≤ 1.5 µM,"CCS(=O)(=O)N1CCC(c2c[nH]c3c(C(N)=O)cc(-c4cccc(N)c4)cc23)CC1 [Example 166, 5-(3-aminophenyl)-3-[1-(ethylsulfonyl)-4-piperidinyl]-1H-indole-7-carboxamide]",–
≤ 10 µM,≤ 1.5 µM,"CCS(=O)(=O)N1CCC(c2c[nH]c3c(C(N)=O)cc(-c4csc(CCN(C)C)c4)cc23)CC1 [Example 223, 5-{5-[2-(dimethylamino)ethyl]-3-thienyl}-3-[1-(ethylsulfonyl)-4-piperidinyl]-1H-indole-7-carboxamide trifluoroacetate]",–
≤ 10 µM,–,"CCS(=O)(=O)N1CCC(c2c[nH]c3c(C(N)=O)cc(-c4csc(CN5CC[C@H](N(C)C)C5)c4)cc23)CC1 [Example 49, 5-(5-{[(3S)-3-(dimethylamino)-1-pyrrolidinyl]methyl}-3-thienyl)-3-[1-(ethylsulfonyl)-4-piperidinyl]-1H-indole-7-carboxamide]",0 to 60%
